Measured values reported in PubChem BioAssay (NCI).
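Dose response: 5 concentrations. Exposure: 48 h. Format: 96-well plates. Endpoint: linear interpolation; highest concentration if not reached. TGI denotes the concentration required for complete inhibition of growth.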

Experiments:
Experiment in all cases: NCI anticancer screen, dose series, 48 h
786-0 renal = system: 786-0 renal
A549 NSCLC = system: A549 NSCLC
ACHN renal = system: ACHN renal
CCRF-CEM leukemia = system: CCRF-CEM leukemia
COLO 205 colon = system: COLO 205 colon
DMS 114 small cell lung = system: DMS 114 small cell lung
EKVX NSCLC = system: EKVX NSCLC
HCC-2998 colon = system: HCC-2998 colon
HCT-15 colon = system: HCT-15 colon
HL-60(TB) leukemia = system: HL-60(TB) leukemia
HOP-62 NSCLC = system: HOP-62 NSCLC
HT29 colon = system: HT29 colon
IGROV1 ovarian = system: IGROV1 ovarian
K-562 leukemia = system: K-562 leukemia
KM20L2 colon = system: KM20L2 colon
LXFL 529 NSCLC = system: LXFL 529 NSCLC
M14 melanoma = system: M14 melanoma
M19-MEL melanoma = system: M19-MEL melanoma
MOLT-4 leukemia = system: MOLT-4 leukemia
NCI-H522 lung = system: NCI-H522 lung
OVCAR-3 ovarian = system: OVCAR-3 ovarian
OVCAR-8 ovarian = system: OVCAR-8 ovarian
RPMI-8226 leukemia = system: RPMI-8226 leukemia
RXF-631 renal = system: RXF-631 renal
SF-268 CNS = system: SF-268 CNS
SF-295 CNS = system: SF-295 CNS
SK-MEL-28 melanoma = system: SK-MEL-28 melanoma
SK-OV-3 ovarian = system: SK-OV-3 ovarian
SNB-19 CNS = system: SNB-19 CNS
SNB-75 CNS = system: SNB-75 CNS
SR leukemia = system: SR leukemia
SW-620 colon = system: SW-620 colon
U251 CNS = system: U251 CNS
UACC-62 melanoma = system: UACC-62 melanoma
UO-31 renal = system: UO-31 renal
A498 renal = system: A498 renal
CAKI-1 renal = system: CAKI-1 renal
DLD-1 colon = system: DLD-1 colon
DMS 273 small cell lung = system: DMS 273 small cell lung
HCT-116 colon = system: HCT-116 colon
HOP-92 NSCLC = system: HOP-92 NSCLC
KM12 colon = system: KM12 colon
LOX IMVI melanoma = system: LOX IMVI melanoma
MALME-3M melanoma = system: MALME-3M melanoma
NCI-H23 lung = system: NCI-H23 lung
NCI-H460 lung = system: NCI-H460 lung
OVCAR-4 ovarian = system: OVCAR-4 ovarian
OVCAR-5 ovarian = system: OVCAR-5 ovarian
RXF 393 renal = system: RXF 393 renal
SF-539 CNS = system: SF-539 CNS
SK-MEL-2 melanoma = system: SK-MEL-2 melanoma
SK-MEL-5 melanoma = system: SK-MEL-5 melanoma
SN12C renal = system: SN12C renal
SNB-78 CNS = system: SNB-78 CNS
TK-10 renal = system: TK-10 renal
UACC-257 melanoma = system: UACC-257 melanoma
XF 498 CNS = system: XF 498 CNS
NCI-H226 lung = system: NCI-H226 lung

Structure (SMILES): CC1=C(C)C(=O)C2=C(OCCCO2)C1=O
- TGI (786-0 renal): 33.3 µM
- TGI (A549 NSCLC): > 100 µM
- TGI (ACHN renal): 32.4 µM
- TGI (CCRF-CEM leukemia): 8.11 µM
- TGI (COLO 205 colon): > 100 µM
- TGI (DMS 114 small cell lung): 33.5 µM
- TGI (EKVX NSCLC): 31 µM
- TGI (HCC-2998 colon): > 100 µM
- TGI (HCT-15 colon): > 100 µM
- TGI (HL-60(TB) leukemia): 19 µM
- TGI (HOP-62 NSCLC): > 100 µM
- TGI (HT29 colon): 46.3 µM
- TGI (IGROV1 ovarian): 33.3 µM
- TGI (K-562 leukemia): 54 µM
- TGI (KM20L2 colon): > 100 µM
- TGI (LXFL 529 NSCLC): 31.9 µM
- TGI (M14 melanoma): 30.7 µM
- TGI (M19-MEL melanoma): 33.3 µM
- TGI (MOLT-4 leukemia): 5.33 µM
- TGI (NCI-H522 lung): 33.1 µM
- TGI (OVCAR-3 ovarian): 32 µM
- TGI (OVCAR-8 ovarian): 32.9 µM
- TGI (RPMI-8226 leukemia): 36.1 µM
- TGI (RXF-631 renal): 31.5 µM
- TGI (SF-268 CNS): 33.2 µM
- TGI (SF-295 CNS): 70.9 µM
- TGI (SK-MEL-28 melanoma): > 100 µM
- TGI (SK-OV-3 ovarian): > 100 µM
- TGI (SNB-19 CNS): > 100 µM
- TGI (SNB-75 CNS): 51.7 µM
- TGI (SR leukemia): 44.9 µM
- TGI (SW-620 colon): 31.2 µM
- TGI (U251 CNS): > 100 µM
- TGI (UACC-62 melanoma): 32.7 µM
- TGI (UO-31 renal): 30.1 µM

Structure (SMILES): CCCCSN1C(=O)c2ccccc2C1=S
- TGI (786-0 renal): > 100 µM
- TGI (A498 renal): > 100 µM
- TGI (A549 NSCLC): > 100 µM
- TGI (ACHN renal): > 100 µM
- TGI (CAKI-1 renal): > 100 µM
- TGI (CCRF-CEM leukemia): 53 µM
- TGI (COLO 205 colon): > 100 µM
- TGI (DLD-1 colon): > 100 µM
- TGI (DMS 114 small cell lung): > 100 µM
- TGI (DMS 273 small cell lung): > 100 µM
- TGI (EKVX NSCLC): > 100 µM
- TGI (HCC-2998 colon): > 100 µM
- TGI (HCT-116 colon): > 100 µM
- TGI (HCT-15 colon): > 100 µM
- TGI (HL-60(TB) leukemia): 51.2 µM
- TGI (HOP-62 NSCLC): > 100 µM
- TGI (HOP-92 NSCLC): > 100 µM
- TGI (HT29 colon): > 100 µM
- TGI (IGROV1 ovarian): > 100 µM
- TGI (K-562 leukemia): 69.5 µM
- TGI (KM12 colon): > 100 µM
- TGI (LOX IMVI melanoma): > 100 µM
- TGI (M14 melanoma): > 100 µM
- TGI (M19-MEL melanoma): > 100 µM
- TGI (MALME-3M melanoma): > 100 µM
- TGI (MOLT-4 leukemia): 50.3 µM
- TGI (NCI-H23 lung): > 100 µM
- TGI (NCI-H460 lung): > 100 µM
- TGI (OVCAR-3 ovarian): > 100 µM
- TGI (OVCAR-4 ovarian): > 100 µM
- TGI (OVCAR-5 ovarian): > 100 µM
- TGI (OVCAR-8 ovarian): > 100 µM
- TGI (RPMI-8226 leukemia): 49.4 µM
- TGI (RXF 393 renal): > 100 µM
- TGI (RXF-631 renal): > 100 µM
- TGI (SF-268 CNS): > 100 µM
- TGI (SF-295 CNS): > 100 µM
- TGI (SF-539 CNS): > 100 µM
- TGI (SK-MEL-2 melanoma): > 100 µM
- TGI (SK-MEL-28 melanoma): > 100 µM
- TGI (SK-MEL-5 melanoma): > 100 µM
- TGI (SK-OV-3 ovarian): > 100 µM
- TGI (SN12C renal): > 100 µM
- TGI (SNB-19 CNS): > 100 µM
- TGI (SNB-75 CNS): > 100 µM
- TGI (SNB-78 CNS): > 100 µM
- TGI (SW-620 colon): > 100 µM
- TGI (TK-10 renal): > 100 µM
- TGI (U251 CNS): > 100 µM
- TGI (UACC-257 melanoma): > 100 µM
- TGI (UACC-62 melanoma): > 100 µM
- TGI (UO-31 renal): > 100 µM
- TGI (XF 498 CNS): > 100 µM

Structure (SMILES): Clc1ccccc1C(n1ncc2ccccc21)n1ncc2ccccc21
- TGI (786-0 renal): > 100 µM
- TGI (A498 renal): > 100 µM
- TGI (ACHN renal): > 100 µM
- TGI (CAKI-1 renal): > 100 µM
- TGI (CCRF-CEM leukemia): > 100 µM
- TGI (DLD-1 colon): > 100 µM
- TGI (DMS 114 small cell lung): > 100 µM
- TGI (DMS 273 small cell lung): > 100 µM
- TGI (HCC-2998 colon): > 100 µM
- TGI (HCT-116 colon): > 100 µM
- TGI (HCT-15 colon): > 100 µM
- TGI (HL-60(TB) leukemia): 50.1 µM
- TGI (HOP-62 NSCLC): > 100 µM
- TGI (HOP-92 NSCLC): > 100 µM
- TGI (HT29 colon): > 100 µM
- TGI (IGROV1 ovarian): > 10 µM
- TGI (K-562 leukemia): > 100 µM
- TGI (KM12 colon): > 100 µM
- TGI (LOX IMVI melanoma): > 100 µM
- TGI (LXFL 529 NSCLC): > 100 µM
- TGI (M14 melanoma): > 100 µM
- TGI (M19-MEL melanoma): > 100 µM
- TGI (MALME-3M melanoma): > 100 µM
- TGI (MOLT-4 leukemia): > 100 µM
- TGI (NCI-H226 lung): > 100 µM
- TGI (NCI-H23 lung): > 100 µM
- TGI (NCI-H460 lung): > 100 µM
- TGI (NCI-H522 lung): > 100 µM
- TGI (OVCAR-3 ovarian): > 100 µM
- TGI (OVCAR-4 ovarian): > 100 µM
- TGI (OVCAR-5 ovarian): > 100 µM
- TGI (OVCAR-8 ovarian): > 100 µM
- TGI (RPMI-8226 leukemia): 63.3 µM
- TGI (RXF 393 renal): > 100 µM
- TGI (SF-268 CNS): > 100 µM
- TGI (SF-295 CNS): > 100 µM
- TGI (SF-539 CNS): > 100 µM
- TGI (SK-MEL-2 melanoma): > 100 µM
- TGI (SK-MEL-28 melanoma): > 100 µM
- TGI (SK-MEL-5 melanoma): 57.7 µM
- TGI (SK-OV-3 ovarian): > 10 µM
- TGI (SN12C renal): > 100 µM
- TGI (SNB-19 CNS): > 100 µM
- TGI (SNB-75 CNS): 65.6 µM
- TGI (SNB-78 CNS): > 100 µM
- TGI (SR leukemia): > 100 µM
- TGI (SW-620 colon): > 100 µM
- TGI (TK-10 renal): > 100 µM
- TGI (U251 CNS): > 100 µM
- TGI (UACC-257 melanoma): > 100 µM
- TGI (UACC-62 melanoma): > 10 µM
- TGI (UO-31 renal): 94.4 µM
- TGI (XF 498 CNS): > 100 µM
